System: TNFα release from activated monocytic cells
Assay: Cytokine release assay in vitro (TNFα, ELISA)
Assay type: cell-based, human
Details: 1 μM, 18 hours
Experimental: Human donor monocyte-derived dendritic cells are cultured in RPMI-1640 containing 10% fetal bovine serum for six days in the presence of 10 ng/mL IL-4 and 200 ng/mL GM-CSF. The cells are activated with various activation stimuli: 10 ng/mL LPS (Sigma), 5 μg/mL recombinant human CD-40 ligand (R&D Systems), or 5 μM Human CpG-DNA (HyCult Biotechnology) in the presence of prostaglandin E2 (PGE2) (1 μM), vehicle control (DMSO) or test substances (1 μM) for 18 hours. The levels of cell culture supernatant TNFα for individual donors is measured by commercial ELISA kits.

Structure (SMILES): CCCCC[C@H](O)/C=C/[C@H]1[C@H](O)CC(=O)[C@@H]1C/C=C\CCCC(=O)O [PGE2, Prostaglandin E2]
- TNFα (CD40 ligand, Donor 3): 147.9 pg/mL
- TNFα (CD40 ligand, Donor 4): 87.0 pg/mL
- TNFα (CD40 ligand, Donor 6): 54.2 pg/mL
- TNFα (CpG, Donor 1): 104.5 pg/mL
- TNFα (CpG, Donor 3): 70.0 pg/mL
- TNFα (CpG, Donor 6): 106.2 pg/mL
- TNFα (LPS, Donor 4): 0.0 pg/mL
- TNFα (LPS, Donor 6): 174.8 pg/mL
